Measured values from patent US20220106301A1, “ACETAMIDO-PHENYLBENZAMIDE DERIVATIVES AND METHODS OF USING THE SAME” (Athenex, Inc., priority 2020, published 2022).

Target: CYP3A4 (Homo sapiens, UniProt P08684)
Assay: Determination of CYP3A4 inhibitory activity (human liver microsome, Luciferin-IPA)
Conditions: CYP3A4 IC50 (nM), 37° C. 11 minutes
Procedure, shortened: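 Final compound concentrations 37, 111, 333, 1000 and 3000 nM; reaction at 37° C for 11 min, then luciferin detection reagent 5 min at room temperature with luminescence read-out. IC50 from nonlinear regression of dose-response.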

Sequence of CYP3A4 (P08684 whole entry): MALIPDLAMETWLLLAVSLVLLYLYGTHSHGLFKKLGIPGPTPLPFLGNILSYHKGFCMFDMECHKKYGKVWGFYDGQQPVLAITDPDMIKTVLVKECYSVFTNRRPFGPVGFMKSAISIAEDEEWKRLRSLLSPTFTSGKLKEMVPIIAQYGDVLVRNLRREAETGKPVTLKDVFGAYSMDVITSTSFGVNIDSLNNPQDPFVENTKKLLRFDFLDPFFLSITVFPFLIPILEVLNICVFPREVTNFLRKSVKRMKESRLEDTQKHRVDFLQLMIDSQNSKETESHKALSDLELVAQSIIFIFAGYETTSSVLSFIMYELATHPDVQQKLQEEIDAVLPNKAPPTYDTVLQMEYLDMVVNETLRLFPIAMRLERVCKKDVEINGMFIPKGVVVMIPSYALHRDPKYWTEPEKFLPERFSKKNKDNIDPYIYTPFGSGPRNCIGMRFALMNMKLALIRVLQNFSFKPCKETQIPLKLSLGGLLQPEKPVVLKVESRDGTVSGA

| SMILES | IC50 |
| --- | --- |
| COc1cc(NC(=O)c2cnc3ccccc3n2)c(C(=O)Nc2ccc(CCN(Cc3cncc(C)c3)Cc3ccc4c(cnn4C)c3)cc2)cc1OC [Compound 70] | 100 to 250 nM |
| COc1cc(NC(=O)c2cc(=O)c3ccccc3o2)c(C(=O)Nc2ccc(CCN(C)Cc3cccc(-c4c[nH]cn4)c3)cc2)cc1OC [Compound 13] | > 1000 nM |
| COc1cc(NC(=O)c2cc(=O)c3ccccc3o2)c(C(=O)Nc2ccc(CCN(Cc3cncc(OCCN(C)C)c3)Cc3ccc4c(cnn4C)c3)cc2)cc1OC [Compound 244] | > 1000 nM |
| COc1cc(NC(=O)C2CC(=O)c3ccccc3O2)c(C(=O)Nc2ccc(CCN(C)Cc3ccc(-c4ccncc4)cc3)cc2)cc1OC (stereo not shown) [Compound 89] | > 1000 nM |
| CN(CCc1ccc(NC(=O)c2ccc(C(=O)O)cc2NC(=O)c2cc(=O)c3ccccc3o2)cc1)Cc1ccc2c(cnn2C)c1 [Compound 271] | > 1000 nM |
| COc1cc(NC(=O)c2cc(=O)c3ccccc3o2)c(C(=O)Nc2ccc(CCN(C)Cc3cccc(-n4cnc(C)c4)c3)cc2)cc1OC [Compound 11] | 500 to 1000 nM |
| COc1cc(NC(=O)c2cc(=O)c3cc(C)ccc3o2)c(C(=O)Nc2ccc(CCN(Cc3cccnc3)Cc3ccc4c(c3)c(C)nn4C)cc2)cc1OC [Compound 66] | 100 to 250 nM |
| COc1cc(NC(=O)c2cc(=O)c3ccccc3o2)c(C(=O)Nc2ccc(CCN(Cc3cccnc3)Cc3ccc4c(c3)nnn4C)cc2)cc1OC [Compound 221] | 250 to 500 nM |
| COc1cc(NC(=O)c2cc(=O)c3ccccc3o2)c(C(=O)NCc2ccc(CN(Cc3ccc(-c4cncs4)cc3)Cc3ccc4c(cnn4C)c3)cc2)cc1OC [Compound 238] | > 1000 nM |
| COc1cc(NC(=O)c2cc(=O)c3ccccc3o2)c(C(=O)Nc2ccc(CCN(Cc3ccncc3)Cc3ccc4cnn(C)c4c3)cc2)cc1OC [Compound 182] | < 100 nM |
| CCOc1cncc(CN(CCc2ccc(NC(=O)c3cc(OC)c(OC)cc3NC(=O)c3cc(=O)c4ccccc4o3)cc2)Cc2ccc3c(cnn3C)c2)c1 [Compound 55] | 100 to 250 nM |
| CCN(CCc1ccc(NC(=O)c2cc(OC)c(OC)cc2NC(=O)c2cc(=O)c3ccccc3o2)cc1)Cc1ccc(O)c(OC)c1 [Compound 135] | 500 to 1000 nM |
| COc1cc(NC(=O)c2cc(=O)c3ccccc3o2)c(C(=O)Nc2ccc(CCN(Cc3ccncc3)Cc3ccc4c(cnn4C)c3)cc2)cc1OC [Compound 33] | < 100 nM |
| COc1cncc(CN(CCc2ccc(NC(=O)c3cc(OC)c(OC)cc3NC(=O)c3cc(=O)c4ccccc4o3)cc2)Cc2cccc(-n3ccnc3)c2)c1 [Compound 217] | 100 to 250 nM |
| COc1cc(NC(=O)c2cc(=O)c3ccccc3o2)c(C(=O)Nc2ccc(CCN(Cc3cncc(-n4ccnc4C)c3)Cc3ccc4c(cnn4C)c3)cc2)cc1OC [Compound 58] | 500 to 1000 nM |
| COc1cncc(CN(CCc2ccc(NC(=O)c3cc(OC)c(OC)cc3NC(=O)c3cc(=O)c4ccccc4o3)cc2)Cc2ccc3c(c2)c(C)nn3C)c1 [Compound 63] | 500 to 1000 nM |
| COc1cc(NC(=O)c2cc(=O)c(O)co2)c(C(=O)Nc2ccc(CCN(C)Cc3cccc(-n4ccnc4)c3)cc2)cc1OC [Compound 129] | > 1000 nM |
| COc1ccc(CN(CCc2ccc(NC(=O)c3cc(OC)c(OC)cc3NC(=O)c3cc(=O)c4ccccc4o3)cc2)Cc2cccnc2)cc1OC [Compound 29] | 100 to 250 nM |
| COc1cc(NC(=O)c2cnc3ccccc3n2)c(C(=O)Nc2ccc(CCN(Cc3ccc4c(cnn4C)c3)Cc3ccc4cnn(C)c4c3)cc2)cc1OC [Compound 172] | > 1000 nM |
| COc1cc(NC(=O)c2cc(=O)c3ccccc3o2)c(C(=O)Nc2ccc(CCN(C)Cc3ccc4c(c3)ncn4C)cc2)cc1OC [Compound 98] | > 1000 nM |
| CCN(CCc1ccc(NC(=O)c2cc(OC)c(OC)cc2NC(=O)c2cc(=O)c3ccccc3o2)cc1)Cc1ccc(OCCn2ccnc2)cc1 [Compound 131] | 250 to 500 nM |
| COc1cc(NC(=O)c2cc(=O)c3ccccc3o2)c(C(=O)Nc2ccc(CCN(Cc3cncc(C)c3)Cc3ccc4c(c3)c(C)nn4C)cc2)cc1OC [Compound 64] | 100 to 250 nM |
| COc1cc(NC(=O)c2cnc3ccccc3c2)c(C(=O)Nc2ccc(CCN(Cc3ccc(-n4ccnc4)cc3)Cc3ccc4c(cnn4C)c3)cc2)cc1OC [Compound 145] | 500 to 1000 nM |
| CCN(CCc1ccc(NC(=O)c2cc(OC)c(OC)cc2NC(=O)c2cc(=O)c3ccccc3o2)cc1)Cc1ccc2cnn(C)c2c1 [Compound 164] | > 1000 nM |
| COc1cc(NC(=O)c2cnc3ccccc3n2)c(C(=O)Nc2ccc(CCN(Cc3ccc4cnn(C)c4c3)Cc3ccc4cnn(C)c4c3)cc2)cc1OC [Compound 168] | > 1000 nM |
| Cn1ncc2cc(CNCCc3ccc(NC(=O)c4ccc(C(=O)O)cc4NC(=O)c4cc(=O)c5ccccc5o4)cc3)ccc21 [Compound 256] | > 1000 nM |
| CCN(CCc1ccc(NC(=O)c2cc(OC)c(OC)cc2NC(=O)c2cc(=O)c3ccccc3o2)cc1)Cc1ccc2c(cnn2C)c1 [Compound 106] | > 1000 nM |
| COc1cc(NC(=O)c2cc(=O)c3ccccc3o2)c(C(=O)Nc2ccc(CCN(Cc3cncc(Cl)c3)Cc3ccc4c(cnn4C)c3)cc2)cc1OC [Compound 227] | 500 to 1000 nM |

| SMILES | IC50 |
| --- | --- |
| COc1cc(NC(=O)c2cc(=O)c3cc(C)cc(C)c3o2)c(C(=O)Nc2ccc(CCN(Cc3cccnc3)Cc3ccc4c(cnn4C)c3)cc2)cc1OC [Compound 39] | 250 to 500 nM |
| COc1cc(NC(=O)c2cc(=O)c3ccccc3o2)c(C(=O)NCc2ccc(CN(Cc3cccnc3)Cc3ccc4c(cnn4C)c3)cc2)cc1OC [Compound 234] | 100 to 250 nM |
| COc1ccc(CN(CCc2ccc(NC(=O)c3cc(OC)c(OC)cc3NC(=O)c3cc(=O)c4ccccc4o3)cc2)Cc2cccc(-n3ccnc3)c2)cc1C#N [Compound 219] | 100 to 250 nM |
| COc1cc(NC(=O)c2cc(=O)c3ccccc3o2)c(C(=O)Nc2ccc(CCN(Cc3ccc(-n4cncn4)cc3)Cc3ccc4c(cnn4C)c3)cc2)cc1OC [Compound 142] | > 1000 nM |
| CN(CCc1ccc(NC(=O)c2ccc(C(=O)OCc3cncs3)cc2NC(=O)c2cnc3ccccc3c2)cc1)Cc1ccc2c(cnn2C)c1 [Compound 283] | 500 to 1000 nM |
| COc1cc(NC(=O)c2cc(=O)c3ccccc3o2)c(C(=O)Nc2ccc(CCN(Cc3cncc(OCC(C)C)c3)Cc3ccc4c(cnn4C)c3)cc2)cc1OC [Compound 239] | > 1000 nM |
| COc1cc(NC(=O)c2cc(=O)c3ccccc3o2)c(C(=O)Nc2ccc(CCN(Cc3cccnc3)Cc3cccc(-c4nc(C)no4)c3)cc2)cc1OC [Compound 203] | 250 to 500 nM |
| COc1cc(NC(=O)c2cnc3c(O)cccc3c2)c(C(=O)Nc2ccc(CCN(C)Cc3ccc4c(cnn4C)c3)cc2)cc1OC [Compound 136] | > 1000 nM |
| COc1cncc(CN(CCc2ccc(NC(=O)c3cc(OC)c(OC)cc3NC(=O)c3cc(=O)c4ccccc4o3)cc2)Cc2ccc3c(cnn3C)c2)c1 [Compound 48] | 100 to 250 nM |
| COc1cc(NC(=O)c2cc(=O)c3ccccc3o2)c(C(=O)Nc2ccc(CCN(C)Cc3ccc4c(c3)CCO4)cc2)cc1OC [Compound 155] | > 1000 nM |
| COC(=O)c1ccc(C(=O)Nc2ccc(CCN(Cc3cccc(-n4ccnc4)c3)Cc3cccc(-n4ccnc4)c3)cc2)c(NC(=O)c2cc(=O)c3ccccc3o2)c1 [Compound 260] | < 100 nM |
| COc1cc(NC(=O)c2cc(=O)c3ccccc3o2)c(C(=O)Nc2ccc(CCN(Cc3cncc(O)c3)Cc3ccc4c(c3)c(C)nn4C)cc2)cc1OC [Compound 247] | 100 to 250 nM |
| COc1cc(NC(=O)c2cc(=O)c3ccccc3o2)c(C(=O)NCc2ccc(CN(Cc3ccc4c(cnn4C)c3)Cc3ccccc3-n3ccnc3)cc2)cc1OC [Compound 232] | < 100 nM |
| CCOc1cncc(CN(CCc2ccc(NC(=O)c3cc(OC)c(OC)cc3NC(=O)c3cc(=O)c4cc(C)ccc4o3)cc2)Cc2ccc3c(cnn3C)c2)c1 [Compound 73] | 250 to 500 nM |
| COc1cc(NC(=O)c2cc(=O)c3ccccc3o2)c(C(=O)Nc2ccc(CCN(Cc3cccc(OC[C@@H]4CO[C@@](Cn5ccnc5)(c5ccc(Cl)cc5Cl)O4)c3)Cc3ccc4c(cnn4C)c3)cc2)cc1OC [Compound 242] | 250 to 500 nM |
| COc1cc2c(cc1OC)CN(CCc1ccc(NC(=O)c3ccc(C(=O)O)cc3NC(=O)c3cc(=O)c4ccccc4o3)cc1)CC2 [Compound 261] | > 1000 nM |
| COc1cc(NC(=O)c2cc(=O)c3ccccc3o2)c(C(=O)Nc2ccc(CCN(C)Cc3cc(-n4cnc(C)c4)ccc3C)cc2)cc1OC [Compound 117] | 250 to 500 nM |
| COc1cc(NC(=O)c2cc(=O)c3ccccc3o2)c(C(=O)Nc2ccc(CCN(Cc3ccc(N)nc3)Cc3ccc4c(cnn4C)c3)cc2)cc1OC [Compound 224] | > 1000 nM |
| COc1cc(NC(=O)c2cc(=O)c3ccccc3o2)c(C(=O)NCc2ccc(CN(Cc3cccc(-n4ccnc4)c3)Cc3ccc4c(cnn4C)c3)cc2)cc1OC [Compound 233] | 100 to 250 nM |
| COc1cncc(CN(CCc2ccc(NC(=O)c3cc(OC)c(OC)cc3NC(=O)c3cc(=O)c4ccccc4o3)cc2)Cc2ccc3c(c2)nnn3C)c1 [Compound 220] | 100 to 250 nM |
| CCN(CCc1ccc(NC(=O)c2cc(OC)c(OC)cc2NC(=O)c2cc(=O)c3ccccc3o2)cc1)Cc1ccc(C)c2ncccc12 [Compound 144] | > 1000 nM |
| COc1cc(NC(=O)c2cc(=O)c3ccccc3o2)c(C(=O)Nc2ccc(CCN(Cc3cccc(-n4ccnc4)c3)Cc3ccc(C)c4ncccc34)cc2)cc1OC [Compound 206] | > 1000 nM |
| COc1cc(NC(=O)c2cc(=O)c3ccccc3o2)c(C(=O)Nc2ccc(CCN(Cc3ccc4c(c3)c(C)nn4C)Cc3ccc4c(c3)c(C)nn4C)cc2)cc1OC [Compound 180] | > 1000 nM |
| COc1cncc(CN(CCc2ccc(NC(=O)c3cc(OC)c(OC)cc3NC(=O)c3ccc4ccccc4n3)cc2)Cc2ccc3c(cnn3C)c2)c1 [Compound 53] | 100 to 250 nM |
| COc1cc(NC(=O)c2cc(=O)c3ccccc3o2)c(C(=O)Nc2ccc(CCN(Cc3cccc(-n4ccnc4)c3)C(C)C)cc2)cc1OC [Compound 10] | 250 to 500 nM |
| COc1cc(NC(=O)c2cnc3ccccc3n2)c(C(=O)Nc2ccc(CCN(Cc3cncc(C(C)C)c3)Cc3ccc4c(cnn4C)c3)cc2)cc1OC [Compound 75] | 250 to 500 nM |
| CCN(CCc1ccc(NC(=O)c2cc(OC)c(OC)cc2NC(=O)c2cc(=O)c3ccccc3o2)cc1)Cc1ccc2oncc2c1 [Compound 165] | > 1000 nM |
